# Source: patent EP0135897A2 (priority 1983, dated 1985)
# Assays:
# [1] = tested on: Brusone-Pilzes (Piricularia oryzae); format: in vivo; conditions: Wirkstoff-Konzentration 0,8 g/m^2 applied to the water surface; rice (Asahi) inoculated 4 days later; assessed 7 days after inoculation; three pots per test
# [2] = tested on: Reispflanzen (Varietät: Asahi); conditions: in vivo
Compound,Bekämpfungs-Index (%) [1],Phyto-toxizität [2]
"CC1(CCl)C(COC(=O)CCl)C1(Cl)Cl [D-1, 2,2-Dichloro-(cis)-3-methyl-(trans)-3-chloromethylcyclopropanmethanol-chloroacetat]",100%,-
"CC1(CCl)C(CO)C1(Cl)Cl (stereo not drawn) [Verbindung d. Erfindung, 2,2-Dichloro-(cis)-3-methyl-(trans)-3-chloromethylcyclopropanmethanol]",100%,-
